In patent US20240383898A1, “PYRIDO RING COMPOUND, PREPARATION METHOD THEREFOR, INTERMEDIATE, COMPOSITION, AND APPLICATION” (YIYOU BIOTECH (SHANGHAI) CO., LTD, priority 2021, published 2024):

Legend:
JAK1 = biological target: T1, JAK1 (Homo sapiens, UniProt P23458); assay: In vitro activity test of JAK1 kinase (Caliper EZ Reader conversion assay); type: biochemical; conditions: enzyme activity, 10 concentrations from 1000 nM, 3-fold dilution
T1 construct: purchased Carna 08-114
Method: (§1) In Vitro Activity Test of JAK1 and JAK2 Kinases
(§2) • Centrifuge (manufacturer: Eppendorf, model: 5430) • ELISA Instrument (Manufacturer: Perkin Elmer, Model: Caliper EZ Reader 1I) • Echo 550 (Manufacturer: Labcyte, Model: Echo 550)
(§3) (1) Prepare 1 Kinase buffer.
(§4) (2) Compound concentration gradient preparation: The test compound was tested at 1000 nM, 3-fold dilution, 10 concentrations, two-well assay, and configured to a 100-fold final concentration in a 384-well plate. 250 nl of the test compound was then transferred to the 384 reaction plate using Echo550. 250 nl of 100% DMSO was added to each of the negative and positive control wells.
(§5) (3) Prepare 2.5 times the final concentration of kinase solution with 1×Kinase buffer.
(§6) (4) Add 10 μL of 2.5 times the final concentration of kinase solution to the compound wells and 10 μL of 1×Kinase buffer to the negative control wells.
(§7) (5) Centrifuge at 1000 rpm for 30 seconds, mix well with shaking, and incubate at room temperature for 10 minutes.
(§8) (6) Prepare a 25/15-fold final concentration of mixture of ATP and Kinase substrate with 1×Kinase buffer.
(§9) (7) Add 15 μL of a mixture of 25/15 times the final concentration of ATP and substrate to start the reaction.
(§10) (8) Centrifuge the 384-well plate at 1000 rpm for 30 seconds, mix well with shaking, and incubate at room temperature for an appropriate amount of time.
(§11) (9) Stop the kinase reaction by adding 30 μL of termination solution, centrifuge at 1000 rpm for 30 seconds, and mix well with shaking.
(§12) (10) Read the conversion rate with Caliper EZ Reader.
(§13) where: Conversion %_sample is the conversion rate reading of the sample-, Conversion %_min: the average value of the negative control wells, representing the conversion reading of the wells without enzyme activity: Conversion %-max: the average value of the positive control wells, representing the conversion reading of the wells without compound inhibition.
(§14) The log value of concentration was used as the X-axis and the percentage inhibition as the Y-axis, and the function of the analytical software GraphPad Prism 5; log(inhibitor) vs. response -Variable slope, was used to lit dose-effect curves to obtain the IC50) values of each compound on enzyme activity.
(§15) The formula is Y=Bottom+(Top-Bottom)/(1+10^((LogIC50-X)*HillSlope))
(§16) The 1C50 data are specified in Table 1.

JAK2 = biological target: T2, JAK2 (Homo sapiens, UniProt O60674); assay: In vitro activity test of JAK2 kinase (Caliper EZ Reader conversion assay); type: biochemical; conditions: enzyme activity, 10 concentrations from 1000 nM, 3-fold dilution
T2 construct: purchased Carna 08-045
Method: as §1, §2, §3, §4, §5, §6, §7, §8, §9, §10, §11, §12, §13, §14, §15, §16

T2 sequence (O60674 whole entry, species assumed): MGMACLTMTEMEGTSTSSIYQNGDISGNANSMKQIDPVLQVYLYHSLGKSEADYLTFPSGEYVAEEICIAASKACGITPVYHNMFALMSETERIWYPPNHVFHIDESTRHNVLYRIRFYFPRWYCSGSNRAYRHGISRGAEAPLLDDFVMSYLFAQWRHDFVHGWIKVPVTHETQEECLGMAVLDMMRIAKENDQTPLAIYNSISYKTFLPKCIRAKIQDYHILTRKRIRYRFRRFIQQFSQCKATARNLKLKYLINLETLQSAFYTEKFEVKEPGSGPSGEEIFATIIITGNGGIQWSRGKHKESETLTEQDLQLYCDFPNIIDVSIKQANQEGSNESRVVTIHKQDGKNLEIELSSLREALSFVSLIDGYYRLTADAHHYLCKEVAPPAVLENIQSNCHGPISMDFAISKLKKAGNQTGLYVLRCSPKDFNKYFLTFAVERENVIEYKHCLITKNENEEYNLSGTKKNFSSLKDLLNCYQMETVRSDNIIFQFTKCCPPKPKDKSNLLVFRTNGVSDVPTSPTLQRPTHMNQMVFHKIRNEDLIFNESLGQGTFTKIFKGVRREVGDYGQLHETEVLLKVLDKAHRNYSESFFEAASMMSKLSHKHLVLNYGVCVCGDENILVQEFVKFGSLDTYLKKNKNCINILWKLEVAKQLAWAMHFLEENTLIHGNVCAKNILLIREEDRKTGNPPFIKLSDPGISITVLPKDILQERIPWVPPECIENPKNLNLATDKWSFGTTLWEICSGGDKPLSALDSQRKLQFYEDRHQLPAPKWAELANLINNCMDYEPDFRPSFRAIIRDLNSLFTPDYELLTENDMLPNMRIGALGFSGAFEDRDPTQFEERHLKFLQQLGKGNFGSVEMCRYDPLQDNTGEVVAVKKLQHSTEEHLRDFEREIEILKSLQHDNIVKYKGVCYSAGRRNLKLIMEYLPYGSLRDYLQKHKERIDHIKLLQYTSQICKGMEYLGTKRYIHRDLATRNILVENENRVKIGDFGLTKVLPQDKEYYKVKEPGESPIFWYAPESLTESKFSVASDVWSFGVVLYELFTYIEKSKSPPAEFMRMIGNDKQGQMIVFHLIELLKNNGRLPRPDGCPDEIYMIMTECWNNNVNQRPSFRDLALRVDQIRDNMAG
T1 sequence (P23458 whole entry, species assumed): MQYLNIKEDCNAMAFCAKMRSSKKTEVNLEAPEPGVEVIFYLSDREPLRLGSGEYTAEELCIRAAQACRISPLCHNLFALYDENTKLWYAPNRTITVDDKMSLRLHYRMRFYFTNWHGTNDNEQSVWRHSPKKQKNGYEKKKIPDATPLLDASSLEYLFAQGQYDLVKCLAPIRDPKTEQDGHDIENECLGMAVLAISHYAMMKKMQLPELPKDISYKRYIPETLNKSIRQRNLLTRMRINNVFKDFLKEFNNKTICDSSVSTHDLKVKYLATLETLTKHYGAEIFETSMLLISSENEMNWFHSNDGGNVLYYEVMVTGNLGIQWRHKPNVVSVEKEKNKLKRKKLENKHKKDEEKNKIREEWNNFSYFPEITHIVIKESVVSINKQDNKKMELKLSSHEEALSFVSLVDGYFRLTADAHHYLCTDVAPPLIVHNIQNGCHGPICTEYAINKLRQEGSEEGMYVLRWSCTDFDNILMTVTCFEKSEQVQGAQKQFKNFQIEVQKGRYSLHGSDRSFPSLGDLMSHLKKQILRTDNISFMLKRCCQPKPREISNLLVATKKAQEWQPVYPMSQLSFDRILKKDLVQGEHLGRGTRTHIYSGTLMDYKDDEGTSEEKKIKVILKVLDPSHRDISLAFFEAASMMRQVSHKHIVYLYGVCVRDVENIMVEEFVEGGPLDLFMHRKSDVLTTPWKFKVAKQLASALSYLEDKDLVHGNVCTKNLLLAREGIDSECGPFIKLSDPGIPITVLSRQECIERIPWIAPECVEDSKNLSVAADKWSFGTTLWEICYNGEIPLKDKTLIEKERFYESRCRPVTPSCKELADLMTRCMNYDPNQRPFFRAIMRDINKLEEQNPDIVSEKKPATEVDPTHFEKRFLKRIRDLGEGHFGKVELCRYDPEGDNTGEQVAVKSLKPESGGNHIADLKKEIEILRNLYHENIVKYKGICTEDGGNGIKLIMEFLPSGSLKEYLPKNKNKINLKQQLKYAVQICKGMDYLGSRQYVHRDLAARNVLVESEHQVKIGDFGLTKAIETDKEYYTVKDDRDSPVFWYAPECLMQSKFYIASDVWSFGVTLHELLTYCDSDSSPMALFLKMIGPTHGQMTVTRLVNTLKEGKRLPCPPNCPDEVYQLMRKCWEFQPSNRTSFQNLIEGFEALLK

`C[C@@H](O)c1nc2cnc3[nH]ccc3c2n1C1CCN(CCC#N)C1` (stereo partly drawn) [LXS49, 3-(3-(2-((R)-1-Hydroxyethyl)imidazo[4,5-d]pyrrolo[2,3-b]pyridin-1(6H)-yl)pyrrolidin-1-yl)propanenitrile] was tested, and the IC50 (JAK1) was 10 to 100 nM and the IC50 (JAK2) was 100 to 1000 nM.
Work on `Cc1ccc(-c2nc3cnc4[nH]ccc4c3n2-c2cnn(CCC#N)c2)o1` [LXS50, 3-(4-(2-(5-Methylfuran-2-yl)imidazo[4,5-d]pyrrolo[2,3-b]pyridin-1(6H)-yl)-1H-pyrazol-1-yl)propanenitrile] yielded an IC50 (JAK1) of 100 to 1000 nM and an IC50 (JAK2) of less than 10 nM.
In the case of `N#CCCN1CCC(n2c(-c3ccc(CO)o3)nc3cnc4[nH]ccc4c32)C1` (stereo not drawn) [LXS51, 3-(3-(2-(5-(Hydroxymethyl)furan-2-yl)imidazo[4,5-d]pyrrolo[2,3-b]pyridin-1(6H)-yl)pyrrolidin-1-yl)propanenitrile], the IC50 (JAK1) is reported as 10 to 100 nM and the IC50 (JAK2) is reported as 10 to 100 nM.
Work on `N#CCN1CCC(n2c(-c3ccc(CO)o3)nc3cnc4[nH]ccc4c32)C1` (stereo not drawn) [LXS52, 2-(3-(2-(5-(hydroxymethyl)furan-2-yl)imidazo[4,5-d]pyrrolo[2,3-b]pyridin-1(6H)-yl)pyrrolidin-1-yl)acetonitrile] yielded an IC50 (JAK1) of 100 to 1000 nM and an IC50 (JAK2) of 10 to 100 nM.
With `C[C@@H](O)c1nc2cnc3[nH]ccc3c2n1-c1ccc(C#N)cc1` [LXS54, (R)-4-(2-(1-Hydroxyethyl)imidazo[4,5-d]pyrrolo[2,3-b]pyridin-1(6H)-yl)benzonitrile] the IC50 (JAK1) was 100 to 1000 nM and the IC50 (JAK2) was 100 to 1000 nM.
`N#Cc1ccc(-n2c(-c3ccc(CO)o3)nc3cnc4[nH]ccc4c32)cc1` [LXS55, 4-(2-(5-(Hydroxymethyl)furan-2-yl)imidazo[4,5-d]pyrrolo[2,3-b]pyridin-1(6H)-yl)benzonitrile] gave an IC50 (JAK1) of 100 to 1000 nM and an IC50 (JAK2) of 100 to 1000 nM.
Compound `N#Cc1ccc(-n2c(-c3cccc(O)c3)nc3cnc4[nH]ccc4c32)cc1` [LXS56, 4-(2-(3-Hydroxyphenyl)imidazo[4,5-d]pyrrolo[2,3-b]pyridin-1(6H)-yl)benzonitrile] has an IC50 (JAK1) of 10 to 100 nM and an IC50 (JAK2) of 100 to 1000 nM.
`CS(=O)(=O)c1ccc(C2Nc3cnc4[nH]ccc4c3N2c2ccc(C#N)cc2)cc1` (stereo not drawn) [LXS57, 4-(2-(4-(Methylsulfonyl)phenyl)-2,3-dihydroimidazo[4,5-d]pyrrolo[2,3-b]pyridin-1(6H)-yl)benzonitrile] was tested, and the IC50 (JAK1) was 100 to 1000 nM and the IC50 (JAK2) was 100 to 1000 nM.
Work on `C[C@@H](O)c1nc2cnc3[nH]ccc3c2n1[C@@H]1CCN(CCC#N)C1` [LXS58, 3-((R)-3-(2-((R)-1-Hydroxyethyl)imidazo[4,5-d]pyrrolo[2,3-b]pyridin-1(6H)-yl)pyrrolidin-1-yl)propanenitrile] yielded an IC50 (JAK1) of 10 to 100 nM and an IC50 (JAK2) of 10 to 100 nM.
`C[C@@H](O)c1nc2cnc3[nH]ccc3c2n1[C@H]1CCN(CCC#N)C1` [LXS59, 3-((S)-3-(2-((R)-1-hydroxyethyl)imidazo[4,5-d]pyrrolo[2,3-b]pyridin-1(6H)-yl)pyrrolidin-1-yl)propanenitrile] gave an IC50 (JAK1) of 10 to 100 nM and an IC50 (JAK2) of 100 to 1000 nM.
For `CS(=O)(=O)c1ccc(C2Nc3cnc4[nH]ccc4c3N2C2CCN(CCC#N)C2)cc1` (stereo not drawn) [LXS60, 3-(3-(2-(4-(Methylsulfonyl)phenyl)-2,3-dihydroimidazo[4,5-d]pyrrolo[2,3-b]pyridin-1(6H)-yl)pyrrolidin-1-yl)propanenitrile], the IC50 (JAK1) was 10 to 100 nM and the IC50 (JAK2) was 10 to 100 nM.
Work on `C[C@@H](O)c1nc2cnc3[nH]ccc3c2n1C1CCN(C(=O)C2(C#N)CC2)C1` (stereo partly drawn) [LXS61, 1-(3-(2-((R)-1-Hydroxyethyl)imidazo[4,5-d]pyrrolo[2,3-b]pyridin-1(6H)-yl)pyrrolidin-1-carbonyl)cyclopropanecarbonitrile] yielded an IC50 (JAK1) of 100 to 1000 nM and an IC50 (JAK2) of 100 to 1000 nM.
In the case of `CCS(=O)(=O)N1CC(CC#N)(n2cc(-n3c(-c4ccc(C)s4)nc4cnc5[nH]ccc5c43)cn2)C1` [LXS62, 2-(1-(Ethylsulfonyl)-3-(4-(2-(5-methylthien-2-yl)imidazo[4,5-d]pyrrolo[2,3-b]pyridin-1(6H)-yl)-1H-pyrazol-1-yl)azetidin-3-yl)acetonitrile], the IC50 (JAK1) is reported as 100 to 1000 nM and the IC50 (JAK2) is reported as less than 10 nM.
Compound `CCS(=O)(=O)N1CC(CC#N)(n2cc(-n3c(-c4cccs4)nc4cnc5[nH]ccc5c43)cn2)C1` [LXS63, 2-(1-(Ethylsulfonyl)-3-(4-(2-(thiophen-2-yl)imidazo[4,5-d]pyrrolo[2,3-b]pyridin-1(6H)-yl)-1H-pyrazol-1-yl)azetidin-3-yl)acetonitrile] has an IC50 (JAK1) of 100 to 1000 nM and an IC50 (JAK2) of less than 10 nM.
With `N#CCCn1cc(-n2c(C(F)(F)F)nc3cnc4[nH]ccc4c32)cn1` [LXS64, 3-(4-(2-(Trifluoromethyl)imidazo[4,5-d]pyrrolo[2,3-b]pyridin-1(6H)-yl)-1H-pyrazol-1-yl)propanenitrile] the IC50 (JAK1) was 100 to 1000 nM and the IC50 (JAK2) was less than 10 nM.
`C[C@@H](O)c1nc2cnc3[nH]ccc3c2n1[C@H]1CCN(CCCC#N)C1` [LXS65, 4-((S)-3-(2-((R)-1-Hydroxyethyl)imidazo[4,5-d]pyrrolo[2,3-b]pyridin-1(6H)-yl)pyrrolidin-1-yl)butanenitrile] gave an IC50 (JAK1) of less than 10 nM and an IC50 (JAK2) of 100 to 1000 nM.
For `N#CCC(C1CCCC1)n1cc(-n2c(C(F)(F)F)nc3cnc4[nH]ccc4c32)cn1` (stereo not drawn) [LXS66, 3-Cyclopentyl-3-(4-(2-(trifluoromethyl)imidazo[4,5-d]pyrrolo[2,3-b]pyridin-1(6H)-yl)-1H-pyrazol-1-yl)propanenitrile], the IC50 (JAK1) was 10 to 100 nM and the IC50 (JAK2) was 10 to 100 nM.
Work on `CS(=O)(=O)c1ccc(C2Nc3cnc4[nH]ccc4c3N2c2cnn(CCC#N)c2)cc1` (stereo not drawn) [LXS67, 3-(4-(2-(4-(Methylsulfonyl)phenyl)-2,3-dihydroimidazo[4,5-d]pyrrolo[2,3-b]pyridin-1(6H)-yl)-1H-pyrazol-1-yl)propanenitrile] yielded an IC50 (JAK1) of 10 to 100 nM and an IC50 (JAK2) of 10 to 100 nM.
`C[C@@H](O)c1nc2cnc3[nH]ccc3c2n1[C@H]1CCN(CCCCC#N)C1` [LXS68, 5-((S)-3-(2-((R)-1-Hydroxyethyl)imidazo[4,5-d]pyrrolo[2,3-b]pyridin-1(6H)-yl)pyrrolidin-1-yl)pentanonitrile] gave an IC50 (JAK1) of less than 10 nM and an IC50 (JAK2) of 100 to 1000 nM.
`C[C@@H](O)c1nc2cnc3[nH]ccc3c2n1[C@@H]1CN(CCCC#N)CC12CC2` [LXS69, 4-((S)-7-(2-((R)-1-Hydroxyethyl)imidazo[4,5-d]pyrrolo[2,3-b]pyridin-1(6H)-yl)-5-azaspiro[2,4]hept-5-yl)butanenitrile] was tested, and the IC50 (JAK1) was 10 to 100 nM and the IC50 (JAK2) was 10 to 100 nM.
With `C[C@@H](O)c1nc2cnc3[nH]ccc3c2n1[C@@H]1CN(CCCC(F)(F)F)CC12CC2` [LXS70, (R)-1-(1-((S)-5-(4,4,4-Trifluorobutyl)-5-azaspiro[2,4]hept-7-yl)-1,6-dihydroimidazo[4,5-d]pyrrolo[2,3-b]pyridin-2-yl)ethanol] the IC50 (JAK1) was 10 to 100 nM and the IC50 (JAK2) was 10 to 100 nM.
With `C[C@@H](O)c1nc2cnc3[nH]ccc3c2n1[C@H]1CCN(CCCC(F)(F)F)C1` [LXS71, (R)-1-(1-((S)-1-(4,4,4-Trifluorobutyl)pyrrolidin-3-yl)-1,6-dihydroimidazo[4,5-d]pyrrolo[2,3-b]pyridin-2-yl)ethanol] the IC50 (JAK1) was less than 10 nM and the IC50 (JAK2) was 100 to 1000 nM.
Work on `C[C@@H](O)c1nc2cnc3[nH]ccc3c2n1[C@@H]1CN(CCCCC#N)CC12CC2` [LXS72, 5-((S)-7-(2-((R)-1-Hydroxyethyl)imidazo[4,5-d]pyrrolo[2,3-b]pyridin-1(6H)-yl)-5-azaspiro[2,4]hept-5-yl)pentanonitrile] yielded an IC50 (JAK1) of 10 to 100 nM and an IC50 (JAK2) of 10 to 100 nM.
For `C[C@@H](O)c1nc2cnc3[nH]ccc3c2n1[C@H]1CCN(CCCCCF)C1` [LXS73, (R)-1-(1-((S)-1-(5-fluoropentyl)pyrrolidin-3-yl)-1,6-dihydroimidazo[4,5-d]pyrrolo[2,3-b]pyridin-2-yl) ethanol], the IC50 (JAK1) was less than 10 nM and the IC50 (JAK2) was 100 to 1000 nM.
Work on `C[C@@H](O)c1nc2cnc3[nH]ccc3c2n1[C@H]1CCN(CC(=O)NCC(F)(F)F)C1` [LXS74, 2-((S)-3-(2-((R)-1-Hydroxyethyl)imidazo[4,5-d]pyrrolo[2,3-b]pyridin-1(6H)-yl)pyrrolidin-1-yl)-N-(2,2,2-trifluoroethyl)acetamide] yielded an IC50 (JAK1) of less than 10 nM and an IC50 (JAK2) of 100 to 1000 nM.
In the case of `CC(C(=O)NCC(F)(F)F)N1CC[C@H](n2c([C@@H](C)O)nc3cnc4[nH]ccc4c32)C1` (stereo partly drawn) [LXS75, 2-((S)-3-(2-((R)-1-Hydroxyethyl)imidazo[4,5-d]pyrrolo[2,3-b]pyridin-1(6H)-yl)pyrrolidin-1-yl)-N-(2,2,2-trifluoroethyl)propanamide], the IC50 (JAK1) is reported as less than 10 nM and the IC50 (JAK2) is reported as 100 to 1000 nM.
In the case of `CCC(C(=O)NCC(F)(F)F)N1CC[C@H](n2c([C@@H](C)O)nc3cnc4[nH]ccc4c32)C1` (stereo partly drawn) [LXS76, 2-((S)-3-(2-((R)-1-Hydroxyethyl)imidazo[4,5-d]pyrrolo[2,3-b]pyridin-1(6H)-yl)pyrrolidin-1-yl)-N-(2,2,2-trifluoroethyl)butanamide], the IC50 (JAK1) is reported as less than 10 nM and the IC50 (JAK2) is reported as 100 to 1000 nM.
